From patent US20120197004A1, “NOVEL ANTI-MICROBIAL PEPTIDOMIMETIC COMPOUNDS AND METHODS TO CALCULATE ANTI-MICROBIAL ACTIVITY” (priority 2006, published 2012)
Values after ≈ are worked out from the molar mass of the structure shown. Where a SMILES comes first, the peptide text is derived from it. [ ]: non-standard residue; d: D form. Oic = O=C(O)[C@@H]1C[C@@H]2CCCC[C@@H]2N1; Tic = O=C(O)[C@@H]1Cc2ccccc2CN1; Orn = NCCC[C@H](N)C(=O)O

Key:
[1] = tested on: Staphylococcus aureus Methicillin/Gentamicin/Tetracycline Resistant (ATCC 33592)
[2] = tested on: Salmonella typhimurium strain LT2; test: In vivo challenge, gram-negative infection; conditions: Balb/c mice, intraperitoneal challenge 2.5×10^6; 5 mg/kg initial, then 2.5 mg/kg morning and afternoon
mouse cutaneous injury = test: Mouse skin wound healing model; format: in vivo, CD-1 derived male mice; conditions: topical once daily for 10 days; test substances 100 μg/mouse, CGS-21680 10 μg/mouse
Description: In-vivo assays: Selected compounds were evaluated in an in-vivo mouse skin wound healing model by MDS Pharma Services using the following protocol. Groups of CD-1 derived male mice (n=5) weighting 24±2 g were used. Under hexobarbitol (90 mg/kg, IP) anesthesia, the shoulder and back region of each animal was shaved. A sharp punch (ID 12 mm) was applied to remove the skin including panniculus carnosus and adherent tissues. […] The percent closure of the wound (%) was calculated, and wound half-closure time (CT50) was analyzed by linear regression using Graph-Prism (Graph Software USA). One-way ANOVA followed by Dunnett's test was applied for comparison between the treated and its corresponding vehicle groups at each measurement time point. Differences are considered statistically significant at P<0.05.^41

[3] = tested on: Bacillus subtillis (ATCC 43223)
[4] = tested on: Salmonella typhimurium (ATCC 13311)
[5] = tested on: Mycobacterium ranae (ATCC 110)

CC(=O)NCC(=O)N[C@@H](Cc1ccccc1)C(=O)N1Cc2ccccc2C[C@H]1C(=O)N1[C@H](C(=O)NCC(=O)N[C@@H](CCCN)C(=O)N2Cc3ccccc3C[C@H]2C(=O)N2[C@H](C(=O)NCC(=O)N[C@@H](Cc3ccccc3)C(=O)N3Cc4ccccc4C[C@H]3C(=O)N3[C@H](C(=O)NCC(=O)N[C@@H](CCCN)C(=O)N4Cc5ccccc5C[C@H]4C(=O)N[C@@H](CCCN)C(=O)N[C@@H](CCCN)C(=O)N[C@@H](CCCN)C(=O)N[C@@H](CCCN)C(N)=O)C[C@@H]4CCCC[C@@H]43)C[C@@H]3CCCC[C@@H]32)C[C@@H]2CCCC[C@@H]21 [FKAB-1Gp, Ac-GF-Tic-Oic-G-Orn-Tic-Oic-GF-Tic-Oic-G-Orn-Tic-Orn-Orn-Orn-Orn-CONH2] (Ac-GF[Tic][Oic]G[Orn][Tic][Oic]GF[Tic][Oic]G[Orn][Tic][Orn][Orn][Orn][Orn]-NH2)
p(MIC) Staphylococcus aureus ME/GM/TC resistant ([1]; -log(MIC)): 5.52
Actual Bioactivity ([1]; p(MIC) used in Staphylococcus aureus QSAR model): 5.520
morbidity (survival compared to control group) [2]: Accelerated morbidity
CT50 (wound half-closure time) (mouse cutaneous injury): 5.7 days
wound closure Day 3 (mouse cutaneous injury): 38.8%
wound closure Day 5 (mouse cutaneous injury): 51.2%
wound closure Day 7 (mouse cutaneous injury): 67.2%
wound closure Day 9 (mouse cutaneous injury): 72.8%
wound closure Day 11 (mouse cutaneous injury): 81.1%
p(MIC) Bacillus Subtillis ([3]; -log(MIC)): 6.52
MIC Bacillus Subtillis ([3]; ATCC 43223): 0.30 µM (≈ 0.707 µg/mL)
p(MIC) Salmonella typhimurium ([4]; -log(MIC)): 5.52
MIC Salmonella typhimurium ([4]; ATCC 13311): 3 µM (≈ 7.07 µg/mL)
Actual Bioactivity [5]: 5.000
MIC Mycobacterium ranae ([5]; ATCC 110): 10.00 µM (≈ 23.6 µg/mL)
Minimum Inhibitory Concentration Mycobacterium ranae ([5]; ATCC 110): 10 µM
